Patent publication US20210283087A1, “METHOD FOR TREATING AND RELIEVING MYOPIA” (China Medical University, priority 2014, published 2021)

How the values were obtained:
[1] = system: sclera and retina of hamster eyes; assay: Immunohistochemistry of hamster eyes (sclera, retina); format: in vivo
Description: Antigen retrieval was performed by boiling the slides in citrate buffer (pH 6.0); the sections were then stained with antibodies against IL-6, TNF-α, TGF-β, MMP2, c-Fos, NF-κB, and CHRM1 and 3. The EnVision System peroxidase kit (DAKO, Carpentaria, Calif., USA) was used to visualize immunoreactivity.

[2] = system: monocular form deprivation (MFD) Syrian hamster; assay: Refractive power in monocular form deprivation (MFD) hamster model, streak retinoscope; format: in vivo, golden Syrian hamsters; details: for Refractive power, BL: left eye before MFD / Refractive power, BR: right eye before MFD: baseline; for Refractive power, FL: left eye after MFD / Refractive power, FR: right eye after MFD (occluded eye): 21 days; for Refractive error FR-BR: MFD right eye; for Refractive error FL-BL: non-MFD left eye
Description: In this study, a total of 160 golden Syrian hamsters aged 3 weeks, weighing 80 to 90 g, and 20 albino guinea pigs, aged 2 to 3 weeks, were used for experiments. All animals were kept in a 12-hour light/dark cycle. All procedures were approved by the Institutional Animal Care and Use Committee of China Medical University and were conducted in accordance with the guidelines of the Use of Animals in Ophthalmic and Vision Research. Hamsters were raised with a right eyelid fusion for 21 days. Myopia was induced in the guinea pigs by covering the right eye with a cloth attached to the skin at a distance of at least 1 cm from the eye. MFD was induced in the right eye (with the left eye serving as a control) of animals randomly assigned to treatment or control groups (n=10 animals each) receiving daily applications of drug or phosphate-buffered saline (PBS), respectively, to both eyes.
The RE (i.e., spherical-component RE, which is defined as the mean RE in horizontal and vertical meridians) was measured using a hand-held streak retinoscope. Animals were anesthetized with 10% ether in O2. Ocular refraction was evaluated at the start and end of the experiment. At the end of the study, animals were sacrificed through CO2 asphyxiation according to the guidelines of the Public Health Service, Office of Laboratory Animal Welfare, National Institutes of Health, and American Association of Veterinary Medicine. Eyes were enucleated using a razor blade on an ice plate under a surgical microscope (Topcon, Tokyo, Japan) by cutting perpendicularly to the anterior-posterior axis approximately 1 mm posterior to the ora serrata. The iris and ciliary body of the anterior segment of the eye were separated. Posterior sclera was excised using a 7-mm-diameter trephine. The axial lengths were determined through A-scan ultrasonography (PacScan 300 Plus, NY, USA). The average of 10 unique measurements was used.

[3] = system: Sclera fibroblast; assay: Gene expression by real-time PCR in LPS-treated primary scleral fibroblasts; format: cell-based, hamster
Description: R28 rat retinal epithelial cells were provided by Gail Seigel at the Ross Eye Institute (SUNY, Buffalo, N.Y., USA). The cells were cultured in Dulbecco's modified Eagle's medium (DMEM) with 10% fetal bovine serum (FBS) at 37° C. and 5% CO2, with medium replacement every 3 days to 4 days. Sclera were placed in a 60-mm culture dish in DMEM supplemented with 10% FBS to isolate primary scleral fibroblasts; those from fewer than three passages were used in experiments. […] Cell lysates were collected for quantitative (q)PCR to determine gene expression levels.
Total RNA was extracted using the RNeasy MiniKit (Qiagen, Valencia, Calif., USA), and 5 μg of RNA was reverse-transcribed to cDNA by using the Superscript First Strand Synthesis system (Invitrogen, Carlsbad, Calif., USA). Primers and probes used for qPCR were selected from the Universal Probes Library (Roche, West Sussex, UK). Transcript levels were normalized to those of glyceraldehyde 3-phosphate dehydrogenase in each sample.

[4] = Atropine 0.125%, listed as atropine
[5] = Atropine 0.5%, listed as atropine
[6] = Atropine 1%, listed as atropine
[7] = sclera fibroblast, 100 ng/ml LPS and 100 μM atropine for 4 hours

In the case of `CN1[C@@H]2CC[C@H]1C[C@@H](OC(=O)C(CO)c1ccccc1)C2` (some centres unmarked) [Atropine, atropine], the “IL-6 and TNF-α immunoreactivity in the retina of MFD eyes” value ([1]; 1% atropine) is reported as “reduced”, the “c-Fos and NF-κB expression in the retinas of MFD eyes” value ([1]; 1% atropine) is reported as “suppressed” and the “COL1 expression in the sclera of the MFD eye” value ([1]; 1% atropine compared with PBS) is reported as “increased”. The “MMP2 expression in the sclera of the MFD eye” value ([1]; 1% atropine compared with PBS) was “decreased”, the “MFD upregulation of TGF-β level in retina and sclera” value ([1]; atropine) was “suppressed” and the IL-10 expression ([1]; atropine treatment) was “elevated”. For the same molecule, the “CHRM1 and CHRM 3 expression in MFD eyes” value ([1]; atropine treatment compared with PBS-treated MFD eyes) was “downregulated”, the “Refractive power, BL: left eye before MFD” value (“Refractive power, BL” for short) ([2]; Atropine 0.125% group) was 11.85 ± 0.18 D and the “Refractive power, BR: right eye before MFD” value (shortened to “Refractive power, BR”) ([2]; Atropine 0.125% group) was 11.9 ± 0.07 D. The “Refractive power, FL: left eye after MFD” value ([2]; Atropine 0.125%) was 8.32 ± 0.16 D, the “Refractive power, FR: right eye after MFD (occluded eye)” value (from here on “Refractive power, FR: right eye”) ([2]; Atropine 0.125%) was 6.45 ± 0.1 D and the “Refractive power, FL: left eye after MFD” value [2, 4] was 8.32±0.16 D. For the same molecule, the “Refractive power, FR: right eye” value [2, 4] was 6.45±0.1 D, the “Refractive error FR-BR” value ([2]; Atropine 0.125%) was −5.45 ± 0.07 D and the “Refractive error FL-BL” value ([2]; Atropine 0.125%) was −3.53 ± 0.28 D. The “Refractive power, BL” value ([2]; Atropine 0.5% group) was 11.69 ± 0.13 D, the “Refractive power, BR” value ([2]; Atropine 0.5% group) was 11.61 ± 0.1 D and the “Refractive power, FL: left eye after MFD” value ([2]; Atropine 0.5%) was 8.58 ± 0.12 D. The “Refractive power, FR: right eye” value ([2]; Atropine 0.5%) was 6.72 ± 0.11 D, the “Refractive power, FL: left eye after MFD” value [2, 5] was 8.58±0.12 D and the “Refractive power, FR: right eye” value [2, 5] was 6.72±0.11 D. For the same molecule, the “Refractive error FR-BR” value ([2]; Atropine 0.5%) was −4.89 ± 0.18 D, the “Refractive error FL-BL” value ([2]; Atropine 0.5%) was −3.11 ± 0.19 D and the “Refractive power, BL” value ([2]; Atropine 1% group) was 11.85 ± 0.18 D. For the same molecule, the “Refractive power, BR” value ([2]; Atropine 1% group) was 11.79 ± 0.15 D, the “Refractive power, FL: left eye after MFD” value ([2]; Atropine 1%) was 10.79 ± 0.16 D and the “Refractive power, FR: right eye” value ([2]; Atropine 1%) was 7.06 ± 0.29 D. For the same molecule, the “Refractive power, FL: left eye after MFD” value [2, 6] was 10.79±0.16 D, the “Refractive power, FR: right eye” value [2, 6] was 7.06±0.29 D and the “Refractive error FR-BR” value ([2]; Atropine 1%) was −4.74 ± 0.39 D. The “Refractive error FL-BL” value ([2]; Atropine 1%) was −1.06 ± 0.22 D, the “Chrm5 gene expression level” value [3] was 0.98 ± 0.12 and the “Chrm 1 gene expression level” value [3, 7] was 0.73 ± 0.11. The “Chrm 2 gene expression level” value [3, 7] was 1.24 ± 0.14, the “Chrm 3 gene expression level” value [3, 7] was 0.70 ± 0.23 and the “Chrm 4 gene expression level” value [3, 7] was 1.11 ± 0.17. The “Fos gene expression level” value [3, 7] was 0.93 ± 0.17, the “IL1b gene expression level” value [3, 7] was 0.75 ± 0.13 and the “IL10 gene expression level” value [3, 7] was 1.05 ± 0.21. For the same molecule, the “IL-6 gene expression level” value [3, 7] was 0.79 ± 0.18, the “MMP2 gene expression level” value [3, 7] was 0.74 ± 0.19 and the “NFkB gene expression level” value [3, 7] was 0.36 ± 0.3. The “Tgfb1 gene expression level” value [3, 7] was 0.48 ± 0.24 and the “Tnfa gene expression level” value [3, 7] was 0.80 ± 0.2.
